# Key:
# Experiment in all cases: Kinase profiling, Invitrogen Z'-LYTE
# Type in all cases: biochemical
# Settings in all cases: Table 2
# [1] = target: T1, NEK6 (Homo sapiens, UniProt Q9HC98)
# T1 construct: purchased Invitrogen
# Experimental: (§1) Kinase profiling was conducted using Invitrogen Z'-LYTE screening protocol and assay conditions found at www.invitrogen.com. Compound (2) inhibited PLK1 completely at 5 μM.
# [2] = target: T2, RET (Homo sapiens, UniProt P07949)
# T2 construct: purchased Invitrogen
# T2 sequence (P07949 29-1114): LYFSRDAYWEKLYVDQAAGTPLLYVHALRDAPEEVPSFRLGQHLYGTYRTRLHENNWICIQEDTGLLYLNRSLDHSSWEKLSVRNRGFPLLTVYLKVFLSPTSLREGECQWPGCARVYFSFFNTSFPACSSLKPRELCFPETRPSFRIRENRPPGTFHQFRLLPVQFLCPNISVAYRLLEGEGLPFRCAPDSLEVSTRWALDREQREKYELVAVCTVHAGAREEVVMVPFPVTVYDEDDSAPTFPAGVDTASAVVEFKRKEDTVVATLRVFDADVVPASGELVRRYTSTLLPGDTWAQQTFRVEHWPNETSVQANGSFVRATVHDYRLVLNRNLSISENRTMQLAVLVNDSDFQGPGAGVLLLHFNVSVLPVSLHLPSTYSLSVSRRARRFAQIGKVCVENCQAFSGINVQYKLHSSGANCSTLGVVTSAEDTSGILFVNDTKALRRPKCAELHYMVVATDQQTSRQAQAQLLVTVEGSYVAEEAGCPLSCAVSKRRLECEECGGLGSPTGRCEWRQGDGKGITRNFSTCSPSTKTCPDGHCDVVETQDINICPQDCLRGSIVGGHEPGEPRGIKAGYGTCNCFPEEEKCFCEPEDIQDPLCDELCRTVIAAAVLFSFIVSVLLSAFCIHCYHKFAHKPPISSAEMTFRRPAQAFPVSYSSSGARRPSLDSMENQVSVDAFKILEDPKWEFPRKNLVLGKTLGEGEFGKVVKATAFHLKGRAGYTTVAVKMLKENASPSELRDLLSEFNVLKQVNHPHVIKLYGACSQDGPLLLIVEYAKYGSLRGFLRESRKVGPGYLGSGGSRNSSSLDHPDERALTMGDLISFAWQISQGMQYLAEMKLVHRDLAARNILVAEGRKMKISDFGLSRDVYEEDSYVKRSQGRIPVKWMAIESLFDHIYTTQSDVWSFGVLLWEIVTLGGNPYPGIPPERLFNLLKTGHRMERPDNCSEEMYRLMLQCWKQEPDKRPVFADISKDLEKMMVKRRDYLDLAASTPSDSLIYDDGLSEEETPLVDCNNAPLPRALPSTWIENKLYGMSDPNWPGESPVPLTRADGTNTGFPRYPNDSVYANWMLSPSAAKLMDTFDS
# Experimental: as §1
# [3] = target: T3, ABL1 (Homo sapiens, UniProt P00519)
# T3 construct: purchased Invitrogen
# T3 sequence (P00519 whole entry): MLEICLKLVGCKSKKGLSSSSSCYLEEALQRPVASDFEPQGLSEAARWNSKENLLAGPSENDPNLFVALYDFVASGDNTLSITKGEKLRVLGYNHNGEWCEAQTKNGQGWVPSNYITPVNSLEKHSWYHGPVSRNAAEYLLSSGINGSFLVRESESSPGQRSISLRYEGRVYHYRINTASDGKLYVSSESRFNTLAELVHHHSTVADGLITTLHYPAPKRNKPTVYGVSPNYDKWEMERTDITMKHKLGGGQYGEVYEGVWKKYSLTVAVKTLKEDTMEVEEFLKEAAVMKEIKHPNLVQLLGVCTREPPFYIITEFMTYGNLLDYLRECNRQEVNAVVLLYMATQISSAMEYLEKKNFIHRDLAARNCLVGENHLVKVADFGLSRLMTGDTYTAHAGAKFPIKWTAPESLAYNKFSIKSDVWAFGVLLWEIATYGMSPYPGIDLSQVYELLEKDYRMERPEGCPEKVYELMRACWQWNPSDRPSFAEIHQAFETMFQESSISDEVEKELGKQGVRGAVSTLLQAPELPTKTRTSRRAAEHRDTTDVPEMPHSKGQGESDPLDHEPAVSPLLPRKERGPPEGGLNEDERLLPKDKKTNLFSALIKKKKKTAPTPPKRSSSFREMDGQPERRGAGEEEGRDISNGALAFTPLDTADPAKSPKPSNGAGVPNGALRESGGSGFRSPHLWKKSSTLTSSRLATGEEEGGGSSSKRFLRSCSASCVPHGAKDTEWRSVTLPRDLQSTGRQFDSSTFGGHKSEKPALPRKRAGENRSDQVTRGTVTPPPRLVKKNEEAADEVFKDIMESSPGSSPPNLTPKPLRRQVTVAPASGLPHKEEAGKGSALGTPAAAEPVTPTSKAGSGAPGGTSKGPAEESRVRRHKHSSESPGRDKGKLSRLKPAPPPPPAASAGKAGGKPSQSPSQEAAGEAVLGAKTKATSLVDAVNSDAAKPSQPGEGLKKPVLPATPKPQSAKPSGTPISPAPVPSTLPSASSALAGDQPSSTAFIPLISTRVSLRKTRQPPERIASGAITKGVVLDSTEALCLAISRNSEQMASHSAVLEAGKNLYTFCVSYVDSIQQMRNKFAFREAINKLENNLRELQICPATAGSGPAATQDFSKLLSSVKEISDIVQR
# Experimental: as §1
# [4] = target: T4, GRK4 (Homo sapiens, UniProt P32298)
# T4 construct: purchased Invitrogen
# Experimental: as §1
# [5] = target: T5, MAPKAPK5 (PRAK) (Homo sapiens, UniProt Q8IW41)
# T5 construct: purchased Invitrogen
# T5 sequence (Q8IW41 1-473): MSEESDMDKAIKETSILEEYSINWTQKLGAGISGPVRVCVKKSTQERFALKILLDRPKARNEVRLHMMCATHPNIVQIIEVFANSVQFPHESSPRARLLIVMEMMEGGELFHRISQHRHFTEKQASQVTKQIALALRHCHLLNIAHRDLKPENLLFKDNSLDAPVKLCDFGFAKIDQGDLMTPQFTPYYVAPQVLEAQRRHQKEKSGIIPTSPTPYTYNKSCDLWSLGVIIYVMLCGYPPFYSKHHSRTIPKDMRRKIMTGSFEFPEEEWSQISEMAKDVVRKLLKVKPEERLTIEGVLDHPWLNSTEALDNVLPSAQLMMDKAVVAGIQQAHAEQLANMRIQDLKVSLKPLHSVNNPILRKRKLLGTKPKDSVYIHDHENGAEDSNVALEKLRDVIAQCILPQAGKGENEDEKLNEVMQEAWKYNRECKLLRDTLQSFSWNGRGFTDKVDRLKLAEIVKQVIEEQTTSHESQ
# Experimental: as §1
# [6] = target: T6, FGR (Homo sapiens, UniProt P09769)
# T6 construct: purchased Invitrogen
# T6 sequence (P09769 whole entry): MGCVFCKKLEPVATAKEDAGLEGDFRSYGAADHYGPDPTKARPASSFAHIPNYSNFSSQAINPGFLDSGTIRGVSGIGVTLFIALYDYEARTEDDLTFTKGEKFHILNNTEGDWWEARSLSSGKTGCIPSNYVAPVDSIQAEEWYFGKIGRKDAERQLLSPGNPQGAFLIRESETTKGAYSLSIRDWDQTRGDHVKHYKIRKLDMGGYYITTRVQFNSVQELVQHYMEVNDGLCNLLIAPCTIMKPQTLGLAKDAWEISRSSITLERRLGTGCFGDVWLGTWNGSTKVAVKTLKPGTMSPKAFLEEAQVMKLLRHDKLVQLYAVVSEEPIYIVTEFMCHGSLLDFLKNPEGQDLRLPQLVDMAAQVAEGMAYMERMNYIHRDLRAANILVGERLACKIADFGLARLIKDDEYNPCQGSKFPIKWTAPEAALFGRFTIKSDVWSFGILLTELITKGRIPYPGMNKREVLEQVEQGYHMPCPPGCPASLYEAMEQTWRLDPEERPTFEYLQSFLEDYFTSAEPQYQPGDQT
# Experimental: as §1
# [7] = target: T7, RPS6KA2 (RSK3) (Homo sapiens, UniProt Q15349)
# T7 construct: purchased Invitrogen
# T7 sequence (Q15349 whole entry): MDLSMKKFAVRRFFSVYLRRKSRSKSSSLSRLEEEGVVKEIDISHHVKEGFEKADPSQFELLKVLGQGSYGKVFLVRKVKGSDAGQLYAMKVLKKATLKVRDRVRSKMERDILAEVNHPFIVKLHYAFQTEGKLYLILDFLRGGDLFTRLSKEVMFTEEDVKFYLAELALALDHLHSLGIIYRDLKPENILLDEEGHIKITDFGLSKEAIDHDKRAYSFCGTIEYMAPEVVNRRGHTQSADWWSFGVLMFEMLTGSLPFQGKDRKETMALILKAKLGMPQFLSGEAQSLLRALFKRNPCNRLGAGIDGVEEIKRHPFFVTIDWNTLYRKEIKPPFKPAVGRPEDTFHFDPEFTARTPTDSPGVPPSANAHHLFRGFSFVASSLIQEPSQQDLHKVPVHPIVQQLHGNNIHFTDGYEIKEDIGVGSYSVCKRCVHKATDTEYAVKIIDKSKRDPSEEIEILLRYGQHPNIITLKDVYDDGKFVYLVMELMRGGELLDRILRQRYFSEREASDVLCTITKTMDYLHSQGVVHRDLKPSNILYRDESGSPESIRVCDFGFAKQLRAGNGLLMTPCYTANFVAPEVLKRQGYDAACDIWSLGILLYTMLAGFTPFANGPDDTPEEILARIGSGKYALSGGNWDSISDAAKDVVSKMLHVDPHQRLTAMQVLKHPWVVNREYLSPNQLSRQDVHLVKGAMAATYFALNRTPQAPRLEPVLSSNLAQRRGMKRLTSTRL
# Experimental: as §1
# [8] = target: T8, IKBKE (IKK epsilon) (Homo sapiens, UniProt Q14164)
# T8 construct: purchased Invitrogen
# T8 sequence (Q14164 1-716): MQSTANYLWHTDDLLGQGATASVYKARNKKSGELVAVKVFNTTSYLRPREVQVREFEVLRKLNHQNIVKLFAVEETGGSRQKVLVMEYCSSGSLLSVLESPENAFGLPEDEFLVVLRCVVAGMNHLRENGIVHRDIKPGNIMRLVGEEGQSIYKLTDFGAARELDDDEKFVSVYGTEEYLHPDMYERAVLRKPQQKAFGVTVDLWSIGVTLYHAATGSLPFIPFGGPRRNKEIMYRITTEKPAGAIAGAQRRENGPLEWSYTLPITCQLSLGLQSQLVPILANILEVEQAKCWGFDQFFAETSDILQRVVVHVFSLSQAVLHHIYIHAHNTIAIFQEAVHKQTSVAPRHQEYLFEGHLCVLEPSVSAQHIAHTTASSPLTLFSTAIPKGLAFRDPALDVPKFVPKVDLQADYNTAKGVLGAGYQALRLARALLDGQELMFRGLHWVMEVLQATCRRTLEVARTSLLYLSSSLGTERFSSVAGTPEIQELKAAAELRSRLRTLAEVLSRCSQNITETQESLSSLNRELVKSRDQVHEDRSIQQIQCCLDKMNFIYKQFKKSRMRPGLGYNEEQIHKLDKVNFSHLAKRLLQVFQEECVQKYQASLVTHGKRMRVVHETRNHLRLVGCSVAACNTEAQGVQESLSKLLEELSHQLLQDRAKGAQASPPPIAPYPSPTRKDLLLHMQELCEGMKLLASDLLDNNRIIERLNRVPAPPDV
# Experimental: as §1
# [9] = target: T9, MARK2 (Homo sapiens, UniProt Q7KZI7)
# T9 construct: purchased Invitrogen
# T9 sequence (Q7KZI7 whole entry): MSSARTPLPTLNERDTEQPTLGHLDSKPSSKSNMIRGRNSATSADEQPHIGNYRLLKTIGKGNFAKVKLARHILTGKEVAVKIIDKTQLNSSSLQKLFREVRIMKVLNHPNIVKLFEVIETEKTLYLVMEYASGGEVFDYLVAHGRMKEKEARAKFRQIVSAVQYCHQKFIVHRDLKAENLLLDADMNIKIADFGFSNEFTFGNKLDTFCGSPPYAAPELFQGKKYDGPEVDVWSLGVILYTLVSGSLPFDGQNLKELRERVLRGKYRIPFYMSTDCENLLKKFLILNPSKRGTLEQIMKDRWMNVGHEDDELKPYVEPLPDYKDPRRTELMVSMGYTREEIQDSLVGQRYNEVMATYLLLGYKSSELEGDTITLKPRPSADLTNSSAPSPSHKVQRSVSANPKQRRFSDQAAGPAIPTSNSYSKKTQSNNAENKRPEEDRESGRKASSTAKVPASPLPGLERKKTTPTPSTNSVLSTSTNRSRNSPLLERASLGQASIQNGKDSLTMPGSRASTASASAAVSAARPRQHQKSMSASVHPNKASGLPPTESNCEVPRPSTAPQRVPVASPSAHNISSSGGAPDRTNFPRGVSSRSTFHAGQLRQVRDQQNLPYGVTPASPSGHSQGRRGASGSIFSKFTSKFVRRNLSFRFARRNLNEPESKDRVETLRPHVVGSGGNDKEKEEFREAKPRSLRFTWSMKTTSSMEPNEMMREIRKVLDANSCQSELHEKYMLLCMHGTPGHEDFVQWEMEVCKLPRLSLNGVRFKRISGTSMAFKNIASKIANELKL
# Experimental: as §1
# [10] = target: T10, PRKD1 (PKC mu) (Homo sapiens, UniProt Q15139)
# T10 construct: purchased Invitrogen
# T10 sequence (Q15139 1-912): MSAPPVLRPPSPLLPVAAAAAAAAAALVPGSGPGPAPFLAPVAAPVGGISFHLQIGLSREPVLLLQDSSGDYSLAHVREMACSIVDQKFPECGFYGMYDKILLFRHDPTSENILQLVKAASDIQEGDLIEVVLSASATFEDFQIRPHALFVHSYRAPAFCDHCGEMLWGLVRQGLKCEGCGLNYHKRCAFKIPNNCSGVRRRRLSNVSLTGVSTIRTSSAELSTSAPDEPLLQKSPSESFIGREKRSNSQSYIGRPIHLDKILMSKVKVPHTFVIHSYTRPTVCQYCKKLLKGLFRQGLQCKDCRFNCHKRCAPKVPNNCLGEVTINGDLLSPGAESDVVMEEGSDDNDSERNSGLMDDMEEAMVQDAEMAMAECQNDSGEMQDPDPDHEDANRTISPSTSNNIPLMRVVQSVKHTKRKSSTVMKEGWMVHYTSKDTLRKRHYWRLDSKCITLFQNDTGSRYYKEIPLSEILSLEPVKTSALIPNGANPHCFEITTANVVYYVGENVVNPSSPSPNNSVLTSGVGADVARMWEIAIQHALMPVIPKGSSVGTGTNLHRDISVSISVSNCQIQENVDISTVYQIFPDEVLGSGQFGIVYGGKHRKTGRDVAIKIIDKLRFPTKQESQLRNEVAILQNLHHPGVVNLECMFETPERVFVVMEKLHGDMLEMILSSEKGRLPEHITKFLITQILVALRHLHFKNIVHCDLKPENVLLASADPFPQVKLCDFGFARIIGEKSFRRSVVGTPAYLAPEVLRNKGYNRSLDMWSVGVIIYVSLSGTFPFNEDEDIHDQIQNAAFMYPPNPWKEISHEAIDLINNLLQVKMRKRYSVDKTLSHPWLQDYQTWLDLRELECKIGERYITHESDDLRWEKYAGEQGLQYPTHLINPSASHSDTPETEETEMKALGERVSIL
# Experimental: as §1
# T1 sequence (Q9HC98 whole entry): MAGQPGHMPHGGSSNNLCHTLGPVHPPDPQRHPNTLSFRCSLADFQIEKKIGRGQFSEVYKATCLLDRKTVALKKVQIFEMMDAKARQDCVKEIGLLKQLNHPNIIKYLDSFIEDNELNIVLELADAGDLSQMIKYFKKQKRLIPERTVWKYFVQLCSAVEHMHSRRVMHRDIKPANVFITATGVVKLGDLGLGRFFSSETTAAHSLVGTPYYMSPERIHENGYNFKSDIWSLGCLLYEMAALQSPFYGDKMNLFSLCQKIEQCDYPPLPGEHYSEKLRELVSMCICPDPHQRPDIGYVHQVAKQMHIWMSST
compound,measurement,setting,value
COc1ccc(OC(=O)n2c(=O)oc3cc(C(C)=O)ccc32)cc1 [Compound 2],% Inhibition Point 1,[1],−490%
same,% Inhibition Point 2,[1],−457%
same,% Inhibition mean,[1],−474%
same,% Inhibition Point 1,[2],−91%
same,% Inhibition Point 2,[2],−70%
same,% Inhibition mean,[2],−80%
same,% Inhibition Point 1,[3],−147%
same,% Inhibition Point 2,[3],−234%
same,% Inhibition mean,[3],−190%
same,% Inhibition Point 1,[4],77%
same,% Inhibition Point 2,[4],76%
same,% Inhibition mean,[4],76%
same,% Inhibition Point 1,[5],−146%
same,% Inhibition Point 2,[5],−147%
same,% Inhibition mean,[5],−146%
same,% Inhibition Point 1,[6],21%
same,% Inhibition Point 2,[6],21%
same,% Inhibition mean,[6],21%
same,% Inhibition Point 1,[7],−266%
same,% Inhibition Point 2,[7],−267%
same,% Inhibition mean,[7],−267%
same,% Inhibition Point 1,[8],3%
same,% Inhibition Point 2,[8],4%
same,% Inhibition mean,[8],3%
same,% Inhibition Point 1,[9],−172%
same,% Inhibition Point 2,[9],−157%
same,% Inhibition mean,[9],−164%
same,% Inhibition Point 1,[10],−137%
same,% Inhibition Point 2,[10],−151%
same,% Inhibition mean,[10],−144%

# — patent US9573911B2, “Diphosphate mimetics and uses thereof” (President and Fellows of Harvard College, priority 2011, dated 2017)
